This is an account of results in patent US10023557B2 (LifeSci Pharmaceuticals, Inc., priority 2015, dated 2018).

pIC50: −log10 of the molar value.

Sequence of human plasma kallikrein (P03952 391-638): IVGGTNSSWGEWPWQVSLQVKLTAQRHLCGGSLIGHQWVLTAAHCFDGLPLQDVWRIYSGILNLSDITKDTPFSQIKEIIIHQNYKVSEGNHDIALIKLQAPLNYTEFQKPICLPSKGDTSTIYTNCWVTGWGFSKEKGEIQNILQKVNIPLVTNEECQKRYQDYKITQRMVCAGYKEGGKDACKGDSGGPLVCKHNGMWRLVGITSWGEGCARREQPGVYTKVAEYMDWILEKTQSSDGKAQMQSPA
Sequence of human plasma kallikrein (P03952 20-390 partner): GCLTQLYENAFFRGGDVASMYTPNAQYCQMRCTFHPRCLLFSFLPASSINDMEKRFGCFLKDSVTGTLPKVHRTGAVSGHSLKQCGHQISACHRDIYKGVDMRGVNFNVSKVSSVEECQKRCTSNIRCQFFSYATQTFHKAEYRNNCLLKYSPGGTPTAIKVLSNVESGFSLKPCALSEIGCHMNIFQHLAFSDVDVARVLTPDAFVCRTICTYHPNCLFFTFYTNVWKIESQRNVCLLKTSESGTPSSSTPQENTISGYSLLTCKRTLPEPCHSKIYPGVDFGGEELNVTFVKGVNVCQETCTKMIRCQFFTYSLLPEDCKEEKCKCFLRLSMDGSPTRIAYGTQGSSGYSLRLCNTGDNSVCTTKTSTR

This test concerns the target human plasma kallikrein (Homo sapiens (Human), UniProt P03952). Briefly: In vitro enzyme inhibition of human plasma kallikrein (PFR-AMC cleavage). It is filed as biochemical. The settings on record: Pro-Phe-Arg-AMC substrate, 37° C., read-out: hPK IC50. As to the method: The ability of the compounds disclosed herein to inhibit human plasma kallikrein activity was quantified according to the procedures below.
A 10 mM solution of the test compound was made in DMSO. […] A control tube containing only DMSO is included. 16 μL of each compound test solution was combined with 384 μL of assay buffer (50 mM Tris-HCl pH 7.5, 150 mM NaCl, 0.01% Triton X-100) to yield a “4× test compound buffer stock”.
These solutions are hereby referred to as 4× hPK and 2×PFR-AMC, respectively.
50 μL was removed from this mixture and placed into duplicate wells on a Microfluor 1Black U-bottom microtiter plate (Thermo Scientific). This plate was incubated for 5 minutes at 37° C. To each well, 50 μL of pre-warmed 2×PFR-AMC was added to start the enzymatic reaction. Cleavage of PFR-AMC was monitored in a Biotek Synergy H4 reader set at 37° C. Readings are taken every 43 seconds for 1 hour. […] The IC50 is calculated using the Gen5 (Biotek Instruments).
The ability of the compounds in Table 3 to inhibit human plasma kallikrein activity was determined.
Turning to `Cc1cc(N)nc(C)c1CNC(=O)c1ccnc(Cc2cc3cc(Cl)ccc3[nH]2)c1` [Example 147, N-((6-amino-2,4-dimethylpyridin-3-yl)methyl)-2-((5-chloro-1H-indol-2-yl)methyl)isonicotinamide], the pIC50 (commonly the IC50 on a negative log10 scale, so that one unit is a factor of ten) is > 7.00.

For `Cc1cc(N)nc(C)c1CNC(=O)c1ccnc(Cc2cnc3[nH]c(Cl)cc3c2)c1` [Example 150, N-((6-amino-2,4-dimethylpyridin-3-yl)methyl)-2-((2-chloro-1H-pyrrolo[2,3-b]pyridin-5-yl)methyl)isonicotinamide], the pIC50 was 6.00 to 7.00.

For the compound `Cc1cc(N)nc(C)c1CNC(=O)c1ccnc(Cc2cc3cc(C(F)(F)F)ccc3[nH]2)c1` [Example 151, N-((6-amino-2,4-dimethylpyridin-3-yl)methyl)-2-((5-(trifluoromethyl)-1H-indol-2-yl)methyl)isonicotinamide], the pIC50 is 6.00 to 7.00.

On to `O=C(NCc1nnc2ccc(Cl)cn12)c1ccnc(Cc2ccc3ncc(Cl)cc3c2)c1` [Example 154, N-((6-chloro-[1,2,4]triazolo[4,3-a]pyridin-3-yl)methyl)-2-((3-chloroquinolin-6-yl)methyl)isonicotinamide], for which the pIC50 is 6.00 to 7.00.

With `Cc1ccn2nnc(CNC(=O)c3ccnc(Cc4ccc5ncc(Cl)cc5c4)c3)c2c1` [Example 155, 2-((3-chloroquinolin-6-yl)methyl)-N-((5-methyl-[1,2,3]triazolo[1,5-a]pyridin-3-yl)methyl)isonicotinamide], the pIC50 was 6.00 to 7.00.

For `O=C(NCc1cnc2ccc(Cl)cn12)c1ccnc(Cc2ccc3ncc(Cl)cc3c2)c1` [Example 157, N-((6-chloroimidazo[1,2-a]pyridin-3-yl)methyl)-2-((3-chloroquinolin-6-yl)methyl)isonicotinamide], the pIC50 is < 5.00.

Consider `Cc1ccn2c(C)nc(CNC(=O)c3ccnc(Cc4ccc5ncc(Cl)cc5c4)c3)c2c1` [Example 158, 2-((3-chloroquinolin-6-yl)methyl)-N-((3,7-dimethylimidazo[1,5-a]pyridin-1-yl)methyl)isonicotinamide], for which the pIC50 is 6.00 to 7.00.

As to `Cc1ccn2c(C)nc(CNC(=O)c3ccnc(Cc4ccc5ncc(C(F)(F)F)cc5c4)c3)c2c1` [Example 159, N-((3,7-dimethylimidazo[1,5-a]pyridin-1-yl)methyl)-2-((3-(trifluoromethyl)quinolin-6-yl)methyl)isonicotinamide], the negative logarithm of the IC50 (pIC50) was 6.00 to 7.00.

Regarding `Cc1ccn2c(C(F)(F)F)nc(CNC(=O)c3ccnc(Cc4ccc5ncc(Cl)cc5c4)c3)c2c1` [Example 160, 2-((3-chloroquinolin-6-yl)methyl)-N-((7-methyl-3-(trifluoromethyl)imidazo[1,5-a]pyridin-1-yl)methyl)isonicotinamide], the pIC50 is < 5.00.

For `Cc1nc2c(cc1CNC(=O)c1ccnc(Cc3ccc4ncc(Cl)cc4c3)c1)CCN2` [Example 161, 2-((3-chloroquinolin-6-yl)methyl)-N-((6-methyl-2,3-dihydro-1H-pyrrolo[2,3-b]pyridin-5-yl)methyl)isonicotinamide], the pIC50 is 6.00 to 7.00.

As to `Cc1nc2c(cc1CNC(=O)c1ccnc(Cc3ccc4ncc(C(F)(F)F)cc4c3)c1)CCN2` [Example 162, N-((6-methyl-2,3-dihydro-1H-pyrrolo[2,3-b]pyridin-5-yl)methyl)-2-((3-(trifluoromethyl)quinolin-6-yl)methyl)isonicotinamide], the pIC50 is 6.00 to 7.00.

For the compound `Cc1nc2c(cc1CNC(=O)c1ccnc(Cc3ccc4ncc(C(F)(F)F)cc4c3)c1)CNC2` [Example 164, N-((2-methyl-6,7-dihydro-5H-pyrrolo[3,4-b]pyridin-3-yl)methyl)-2-((3-(trifluoromethyl)quinolin-6-yl)methyl)isonicotinamide], the pIC50 was < 5.00.

As for `Cc1nc(N)cc(C(F)(F)F)c1CNC(=O)c1ccnc(Cc2ccc3ncc(Cl)cc3c2)c1` [Example 165, N-((6-amino-2-methyl-4-(trifluoromethyl)pyridin-3-yl)methyl)-2-((3-chloroquinolin-6-yl)methyl)isonicotinamide], the pIC50 was 6.00 to 7.00.

On to `COc1cc(N)nc(C)c1CNC(=O)c1ccnc(Cc2ccc3ncc(Cl)cc3c2)c1` [Example 166, N-((6-amino-4-methoxy-2-methylpyridin-3-yl)methyl)-2-((3-chloroquinolin-6-yl)methyl)isonicotinamide], for which the pIC50 is < 5.00.

Take `Cc1nc(N)cc(C#N)c1CNC(=O)c1ccnc(Cc2ccc3ncc(Cl)cc3c2)c1` [Example 167, N-((6-amino-4-cyano-2-methylpyridin-3-yl)methyl)-2-((3-chloroquinolin-6-yl)methyl)isonicotinamide]: the pIC50 is < 5.00.

In the case of `NCc1ccc(CNC(=O)c2ccnc(Cc3ccc4ncc(Cl)cc4c3)c2)cc1` [Example 168, N-(4-(aminomethyl)benzyl)-2-((3-chloroquinolin-6-yl)methyl)isonicotinamide], the pIC50 is 6.00 to 7.00.

On to `NCc1ccc(CNC(=O)c2ccnc(Cc3ccc4ncc(Cl)cc4c3)c2)cn1` [Example 169, N-((6-(aminomethyl)pyridin-3-yl)methyl)-2-((3-chloroquinolin-6-yl)methyl)isonicotinamide], for which the pIC50 was < 5.00.

As for `NCc1ccc(CNC(=O)c2ccnc(Cc3ccc4ncc(Cl)cc4c3)c2)nc1` [Example 170, N-((5-(aminomethyl)pyridin-2-yl)methyl)-2-((3-chloroquinolin-6-yl)methyl)isonicotinamide], the pIC50 is < 5.00.

On to `Cc1cc(C(C)N)nc(C)c1CNC(=O)c1ccnc(Cc2ccc3ncc(Cl)cc3c2)c1` (stereo not shown) [Example 173, N-((6-(1-aminoethyl)-2,4-dimethylpyridin-3-yl)methyl)-2-((3-chloroquinolin-6-yl)methyl)isonicotinamide], for which the pIC50 is 5.00 to 6.00.

As for `Cc1cc(C(C)(C)O)nc(C)c1CNC(=O)c1ccnc(Cc2ccc3ncc(C(F)(F)F)cc3c2)c1` [Example 174, N-((6-(2-hydroxypropan-2-yl)-2,4-dimethylpyridin-3-yl)methyl)-2-((3-(trifluoromethyl)quinolin-6-yl)methyl)isonicotinamide], the pIC50 is < 5.00.

Regarding `Cc1nc2c(c(C)c1CNC(=O)c1ccnc(Cc3ccc4ncc(Cl)cc4c3)c1)CCN2` [Example 175, 2-((3-chloroquinolin-6-yl)methyl)-N-((4,6-dimethyl-2,3-dihydro-1H-pyrrolo[2,3-b]pyridin-5-yl)methyl)isonicotinamide], the pIC50 was > 7.00.

For `O=C(NCc1ccc2cnc(C(F)(F)F)n2c1)c1ccnc(Cc2ccc3ncc(Cl)cc3c2)c1` [Example 185, 2-((3-chloroquinolin-6-yl)methyl)-N-((3-(trifluoromethyl)imidazo[1,5-a]pyridin-6-yl)methyl)isonicotinamide], the pIC50 was < 5.00.

Take `Nc1ncc2cc(CNC(=O)c3ccnc(Cc4ccc5ncc(Cl)cc5c4)c3)ccn12` [Example 187, N-((3-aminoimidazo[1,5-a]pyridin-7-yl)methyl)-2-((3-chloroquinolin-6-yl)methyl)isonicotinamide]: the pIC50 was 6.00 to 7.00.

In the case of `Cc1cc2cncn2cc1CNC(=O)c1ccnc(Cc2ccc3ncc(Cl)cc3c2)c1` [Example 188, 2-((3-chloroquinolin-6-yl)methyl)-N-((7-methylimidazo[1,5-a]pyridin-6-yl)methyl)isonicotinamide], the pIC50 was < 5.00.

Take `Cc1c(CNC(=O)c2ccnc(Cc3ccc4ncc(Cl)cc4c3)c2)cnc2[nH]cc(Cl)c12` [Example 189, N-((3-chloro-4-methyl-1H-pyrrolo[2,3-b]pyridin-5-yl)methyl)-2-((3-chloroquinolin-6-yl)methyl)isonicotinamide]: the pIC50 is 6.00 to 7.00.

For the compound `Cc1cc2[nH]cc(Cl)c2cc1CNC(=O)c1ccnc(Cc2ccc3ncc(Cl)cc3c2)c1` [Example 190, N-((3-chloro-6-methyl-1H-indol-5-yl)methyl)-2-((3-chloroquinolin-6-yl)methyl)isonicotinamide], the pIC50 was 6.00 to 7.00.

With `Cc1nc2[nH]cc(Cl)c2cc1CNC(=O)c1ccnc(Cc2ccc3ncc(Cl)cc3c2)c1` [Example 191, N-((3-chloro-6-methyl-1H-pyrrolo[2,3-b]pyridin-5-yl)methyl)-2-((3-chloroquinolin-6-yl)methyl)isonicotinamide], the pIC50 was > 7.00.

Turning to `Cc1nc2[nH]cc(Cl)c2c(C)c1CNC(=O)c1ccnc(Cc2ccc3ncc(Cl)cc3c2)c1` [Example 192, N-((3-chloro-4,6-dimethyl-1H-pyrrolo[2,3-b]pyridin-5-yl)methyl)-2-((3-chloroquinolin-6-yl)methyl)isonicotinamide], the pIC50 is 6.00 to 7.00.

On to `CC(=O)Nc1cc(C)c(CNC(=O)c2ccnc(Cc3ccc4ncc(Cl)cc4c3)c2)c(C)n1` [Example 193, N-((6-acetamido-2,4-dimethylpyridin-3-yl)methyl)-2-((3-chloroquinolin-6-yl)methyl)isonicotinamide], for which the pIC50 is 5.00 to 6.00.

For `Cc1cc(C)c(CNC(=O)c2ccnc(Cc3ccc4ncc(Cl)cc4c3)c2)c(C)n1` [Example 194, 2-((3-chloroquinolin-6-yl)methyl)-N-((2,4,6-trimethylpyridin-3-yl)methyl)isonicotinamide], the pIC50 was 5.00 to 6.00.

With `Cc1nc2c(c(C)c1CNC(=O)c1ccnc(Cc3ccc4ncc(Cl)cc4c3)c1)CCCN2` [Example 195, 2-((3-chloroquinolin-6-yl)methyl)-N-((2,4-dimethyl-5,6,7,8-tetrahydro-1,8-naphthyridin-3-yl)methyl)isonicotinamide], the pIC50 was > 7.00.
